This is an account of results in patent US9751885B2, “Cyclopropanamine compound and use thereof” (Takeda Pharmaceutical Company Limited, priority 2012, dated 2017).

One data set has as its target human LSD1(172-833) (Homo sapiens (Human), UniProt O60341). Kind of data set: Measurement of LSD1 inhibitory activity (time-resolved fluorescence, biotin-histone H3 mono methylated K4 peptide). It is filed as biochemical. In a few lines:
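Remaining signal detected by TR-FRET after 60 min with europium anti-histone H3 antibody and streptavidin-XL665 in potassium fluoride/0.1% BSA.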

A further data set has as its target MAO-A enzyme (Homo sapiens (Human), UniProt P21397). As to the kind of experiment: Measurement of MAO-A inhibitory activity (MAO-Glo Assay). It is filed as biochemical.
For data set [1], the system named is white blood cell number, red blood cell number, platelet number. Kind of data set: Evaluation of blood cell number in mouse. As to conditions: oral, Day 2 after administration. It is filed as in vivo. Summed up: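 Male ICR mice dosed orally at 1, 10, 50 or 100 mg/kg (suspension in 0.5% methylcellulose/0.02% citric acid/water); whole blood collected on Day 2. White cell, red cell and platelet counts per unit volume by automated haematology analyser, expressed as % of mean of untreated control group.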

A short description of data set [2]: Evaluation of hippocampal distribution in mouse. As to conditions: male ICR mice, 10 mg/kg oral, 0.5 hr after administration. It is filed as in vivo. Summed up: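 Male ICR mice dosed orally at 10 mg/kg as suspension in 0.5% methylcellulose/0.02% citric acid/water. Plasma and hippocampus sampled together at 0.5, 1 or 1.5 h; LC/MS/MS concentrations gave hippocampus/plasma ratio.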

A further data set concerns the target MAO-B enzyme (Homo sapiens (Human), UniProt P27338). Kind of data set: Measurement of MAO-B inhibitory activity (MAO-Glo Assay).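 Further: luminescence read-out, compound preincubated 10 min with enzyme then reacted 60 min at room temperature, inhibition relative to enzyme reaction without compound, blank lacking enzyme and compound.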 As to conditions: read-out: MAO-B IC50 value.
Setting [3] is: hippocampus, read-out: hippocampus concentration (mean).
The mark [4] stands for this setting: plasma, read-out: plasma concentration (mean).

Where a name gives a salt, the structure may show the parent alone. Read-outs that look alike come from different tables or passages of the source. Where only a bound is given, the exact number is not on record here.

MAO-B enzyme, sequence (P27338 whole entry): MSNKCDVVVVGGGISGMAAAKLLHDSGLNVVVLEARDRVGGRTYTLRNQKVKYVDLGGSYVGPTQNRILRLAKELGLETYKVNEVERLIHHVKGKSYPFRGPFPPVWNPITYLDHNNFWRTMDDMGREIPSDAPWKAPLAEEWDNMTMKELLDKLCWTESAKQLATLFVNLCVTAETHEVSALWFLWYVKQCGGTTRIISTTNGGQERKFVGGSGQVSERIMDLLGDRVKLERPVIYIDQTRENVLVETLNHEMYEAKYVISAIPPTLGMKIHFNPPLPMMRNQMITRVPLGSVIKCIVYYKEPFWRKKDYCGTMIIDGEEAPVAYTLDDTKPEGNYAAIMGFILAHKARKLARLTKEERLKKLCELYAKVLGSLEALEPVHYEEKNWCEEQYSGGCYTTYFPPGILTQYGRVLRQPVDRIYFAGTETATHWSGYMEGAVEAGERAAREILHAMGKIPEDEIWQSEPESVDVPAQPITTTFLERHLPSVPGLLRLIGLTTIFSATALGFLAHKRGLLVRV
MAO-A enzyme, sequence (P21397 whole entry): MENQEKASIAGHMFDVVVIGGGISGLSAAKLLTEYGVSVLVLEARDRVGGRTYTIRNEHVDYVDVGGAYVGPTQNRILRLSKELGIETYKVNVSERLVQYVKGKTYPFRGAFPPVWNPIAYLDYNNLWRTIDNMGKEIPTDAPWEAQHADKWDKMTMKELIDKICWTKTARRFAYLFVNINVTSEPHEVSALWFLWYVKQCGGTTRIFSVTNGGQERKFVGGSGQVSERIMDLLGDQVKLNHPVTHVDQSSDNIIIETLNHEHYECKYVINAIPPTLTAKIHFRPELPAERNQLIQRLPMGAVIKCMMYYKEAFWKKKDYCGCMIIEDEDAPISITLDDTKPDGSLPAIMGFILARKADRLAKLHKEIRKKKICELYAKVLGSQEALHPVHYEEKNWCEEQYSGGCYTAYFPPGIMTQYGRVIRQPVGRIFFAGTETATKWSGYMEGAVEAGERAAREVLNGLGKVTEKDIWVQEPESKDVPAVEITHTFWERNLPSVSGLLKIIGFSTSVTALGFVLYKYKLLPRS
Description for MAO-A enzyme: The MAO-A inhibitory activity evaluation described below followed the protocol of MAO-Glo (registered trademark) Assay of Promega KK.
A test compound dissolved in 4% DMSO was added by 12.5 μL to 25 μL reaction solution (100 mM HEPES (pH 7.5), 5% glycerol) containing 400 ng of MAO-A enzyme (Sigma-Aldrich Co. LLC.), and the mixture was reacted at room temperature for 10 min. […] After reaction at room temperature for 60 min, Luciferine detection reagent (Promega KK) (50 μL) was added to terminate the reaction. After reaction at room temperature for min with stirring, the luminescence was measured by Envision (PerkinElmer). The MAO-A inhibitory rate (%) of the test compound was calculated by the following formula. inhibitory rate(%)=(1−(test compound count−blank)÷(control−blank))×100
The count of the MAO-A enzyme reaction mixture under compound non-addition conditions is indicated as control, and the count under compound non-addition and MAO-A enzyme non-addition conditions is indicated as blank.

On to `O=C(NC1CC(F)(F)C1)c1ccc(F)c([C@@H]2C[C@H]2NCC2CC2)c1` (relative stereo) [Example 240, 3-(trans-2-((cyclopropylmethyl)amino)cyclopropyl)-N-(3,3-difluorocyclobutyl)-4-fluorobenzamide hydrochloride], for which the IC50 against human LSD1(172-833) was below 0.1 µM; against MAO-A enzyme it was above 10 µM; at MAO-B enzyme, above 10 µM. The results for the “platelet number, percentage of compound administration group compared to control group, mean” value in data set [1] (10 mg/kg) and in data set [1] (100 mg/kg) were 90.7% and 94.7%, respectively. The results for the “red blood cell number, percentage of compound administration group compared to control group, mean” value in data set [1] (10 mg/kg) and in data set [1] (100 mg/kg) were 95.5% and 98.7%, respectively. Further, the “white blood cell number, percentage of compound administration group compared to control group, mean” value is 82.3% in data set [1] (10 mg/kg) and 109.4% in data set [1] (100 mg/kg). Further, the concentration at 0.5 h in data set [2] (setting [3]) came out at 329 ng/g; in data set [2] (setting [4]), 247 ng/mL. Moreover, the Kp at 0.5 h in data set [2] (hippocampus/plasma, read-out: hippocampus/plasma concentration ratio (mean)) amounted to 1.31.
For `Cn1cc(NC(=O)c2ccc(F)c([C@@H]3C[C@H]3NCC3CC3)c2)cn1` (relative stereo) [Example 237, 3-(trans-2-((cyclopropylmethyl)amino)cyclopropyl)-4-fluoro-N-(1-methyl-1H-pyrazol-4-yl)benzamide dihydrochloride], the IC50 was below 0.1 µM against human LSD1(172-833), above 10 µM against MAO-A enzyme and above 10 µM on MAO-B enzyme. Besides, the “platelet number, percentage of compound administration group compared to control group, mean” value in data set [1] (10 mg/kg) was 90.3%; in data set [1] (100 mg/kg), 91.9%. The results for the “red blood cell number, percentage of compound administration group compared to control group, mean” value in data set [1] (10 mg/kg) and in data set [1] (100 mg/kg) were 98.8% and 96.5%, respectively. In addition, the “white blood cell number, percentage of compound administration group compared to control group, mean” value came to 83.9% in data set [1] (10 mg/kg) and 86.7% in data set [1] (100 mg/kg). Further, the values for the concentration at 0.5 h in data set [2] (setting [3]) and in data set [2] (setting [4]) were 237 ng/g and 523 ng/mL, respectively.
For `O=C(Nc1cnn(-c2ccc(F)cc2)c1)c1cccc([C@@H]2C[C@H]2NC2CCS(=O)(=O)CC2)c1` (relative stereo) [Example 197, 3-(trans-2-((1,1-dioxidotetrahydro-2H-thiopyran-4-yl)amino)cyclopropyl)-N-(1-(4-fluorophenyl)-1H-pyrazol-4-yl)benzamide dihydrochloride], the IC50 against human LSD1(172-833) is below 0.1 µM; at MAO-A enzyme, above 10 µM; at MAO-B enzyme, above 10 µM.
On to `O=C(NCc1ccc(N2CCCC2=O)cc1)c1ccc([C@@H]2C[C@H]2NCC2CC2)cc1` (relative stereo) [Example 27, 4-(trans-2-((cyclopropylmethyl)amino)cyclopropyl)-N-(4-(2-oxopyrrolidin-1-yl)benzyl)benzamide trifluoroacetate], for which the results for the IC50 against human LSD1(172-833), against MAO-A enzyme and on MAO-B enzyme were below 0.1 µM, above 10 µM and above 10 µM, respectively.
Regarding `COc1cccc(CN[C@@H]2C[C@H]2c2ccc(C(=O)NCc3ccccc3)cc2)c1` (relative stereo) [Example 37, N-benzyl-4-(trans-2-((3-methoxybenzyl)amino)cyclopropyl)benzamide trifluoroacetate], the IC50 on human LSD1(172-833) is below 0.1 µM; against MAO-A enzyme, 4.5 µM; at MAO-B enzyme, above 10 µM.

As usually defined, the IC50 is the concentration needed to halve the response being measured.
